Measurements: ChEMBL document CHEMBL3885881, “DrugMatrix”

Species on record: Rattus norvegicus
Experiment: DrugMatrix - Regimen: Daily Repeat
Type: toxicity, organism-based, Sprague-Dawley
Parameters: regimen Daily Repeat, gender Male, age 6-8 weeks
Conditions: in vivo, po, route oral GAVAGE, vehicle .5 % CMC; for BASOPHIL / EOSINOPHIL / ERYTHROCYTE COUNT / HEMATOCRIT / HEMOGLOBIN / LEUKOCYTE COUNT / LYMPHOCYTE / MEAN CORPUSCULAR HEMOGLOBIN / MEAN CORPUSCULAR HEMOGLOBIN CONCENTRATION / MONOCYTE / NEUTROPHIL / PLATELET COUNT: tissue Blood; for ALANINE AMINOTRANSFERASE / ALBUMIN / ALKALINE PHOSPHATASE / ASPARTATE AMINOTRANSFERASE / BLOOD UREA NITROGEN / CHLORIDE / CHOLESTEROL / CREATINE PHOSPHOKINASE / CREATININE / GLUCOSE / PHOSPHORUS / POTASSIUM / SODIUM / TOTAL BILIRUBIN / TOTAL PROTEIN: tissue Plasma
[1] = 0 mg/kg, 72 h, dose level Control, time 3 day
[2] = 0 mg/kg, 120 h, dose level Control, time 5 day
[3] = 60 mg/kg, 72 h, dose level Low, time 3 day
[4] = 60 mg/kg, 120 h, dose level Low, time 5 day

Q: With CC(C)Cc1ccc([C@H](C)C(=O)O)cc1 [DEXIBUPROFEN] as the molecule, how does the BASOPHIL [1] read?
A: 1.52%

Q: What about the EOSINOPHIL [1] of the same molecule?
A: 0.98%

Q: And the “ERYTHROCYTE COUNT” value [1]?
A: 6.96 x10E6/uL

Q: And the HEMATOCRIT [1]?
A: 44.65%

Q: And the HEMOGLOBIN [1]?
A: 13.62 G/DL

Q: And the “LEUKOCYTE COUNT” value [1]?
A: 9.83 x10E3/uL

Q: And the LYMPHOCYTE [1]?
A: 76.48%

Q: What about the “MEAN CORPUSCULAR HEMOGLOBIN” value [1] of the same molecule?
A: 19.57 pg

Q: And the “MEAN CORPUSCULAR HEMOGLOBIN CONCENTRATION” value [1]?
A: 30.47 G/DL

Q: And the MONOCYTE [1]?
A: 2.13%

Q: What about the NEUTROPHIL [1] of the same molecule?
A: 18.6%

Q: What about the “PLATELET COUNT” value [1] of the same molecule?
A: 1217.17 x10E3/uL

Q: And the “ALANINE AMINOTRANSFERASE” value [1]?
A: 41 u/L

Q: And the ALBUMIN [1]?
A: 3.77 G/DL

Q: What about the “ALKALINE PHOSPHATASE” value [1] of the same molecule?
A: 411.83 u/L

Q: And the “ASPARTATE AMINOTRANSFERASE” value [1]?
A: 62.83 u/L

Q: What about the “BLOOD UREA NITROGEN” value [1] of the same molecule?
A: 15.17 mg/dL

Q: And the CHLORIDE [1]?
A: 104.33 MEQ/L

Q: And the CHOLESTEROL [1]?
A: 71.17 mg/dL

Q: And the “CREATINE PHOSPHOKINASE” value [1]?
A: 123.5 u/L

Q: What about the CREATININE [1] of the same molecule?
A: 0.55 mg/dL

Q: And the GLUCOSE [1]?
A: 182.67 mg/dL

Q: What about the PHOSPHORUS [1] of the same molecule?
A: 11.23 mg/dL

Q: What about the POTASSIUM [1] of the same molecule?
A: 7.03 MEQ/L

Q: What about the SODIUM [1] of the same molecule?
A: 148 MEQ/L

Q: What about the “TOTAL BILIRUBIN” value [1] of the same molecule?
A: 0.57 mg/dL

Q: And the “TOTAL PROTEIN” value [1]?
A: 6.85 G/DL

Q: And the BASOPHIL [2]?
A: 1.35%

Q: What about the EOSINOPHIL [2] of the same molecule?
A: 0.43%

Q: What about the “ERYTHROCYTE COUNT” value [2] of the same molecule?
A: 6.96 x10E6/uL

Q: What about the HEMATOCRIT [2] of the same molecule?
A: 44.35%

Q: And the HEMOGLOBIN [2]?
A: 13.98 G/DL

Q: And the “LEUKOCYTE COUNT” value [2]?
A: 9.45 x10E3/uL

Q: What about the LYMPHOCYTE [2] of the same molecule?
A: 80.83%

Q: What about the “MEAN CORPUSCULAR HEMOGLOBIN” value [2] of the same molecule?
A: 20.1 pg

Q: What about the “MEAN CORPUSCULAR HEMOGLOBIN CONCENTRATION” value [2] of the same molecule?
A: 31.52 G/DL

Q: What about the MONOCYTE [2] of the same molecule?
A: 2.37%

Q: And the NEUTROPHIL [2]?
A: 14.05%

Q: What about the “PLATELET COUNT” value [2] of the same molecule?
A: 1298 x10E3/uL

Q: What about the “ALANINE AMINOTRANSFERASE” value [2] of the same molecule?
A: 42.17 u/L

Q: What about the ALBUMIN [2] of the same molecule?
A: 3.77 G/DL

Q: What about the “ALKALINE PHOSPHATASE” value [2] of the same molecule?
A: 419 u/L

Q: What about the “ASPARTATE AMINOTRANSFERASE” value [2] of the same molecule?
A: 66.67 u/L

Q: And the “BLOOD UREA NITROGEN” value [2]?
A: 16.67 mg/dL

Q: What about the CHLORIDE [2] of the same molecule?
A: 103.17 MEQ/L

Q: What about the CHOLESTEROL [2] of the same molecule?
A: 66.33 mg/dL

Q: And the “CREATINE PHOSPHOKINASE” value [2]?
A: 148.33 u/L

Q: What about the CREATININE [2] of the same molecule?
A: 0.58 mg/dL

Q: What about the GLUCOSE [2] of the same molecule?
A: 196.83 mg/dL

Q: And the PHOSPHORUS [2]?
A: 11.8 mg/dL

Q: And the POTASSIUM [2]?
A: 6.47 MEQ/L

Q: And the SODIUM [2]?
A: 148.33 MEQ/L

Q: What about the “TOTAL BILIRUBIN” value [2] of the same molecule?
A: 0.53 mg/dL

Q: And the “TOTAL PROTEIN” value [2]?
A: 6.77 G/DL

Q: And the BASOPHIL [3]?
A: 1.63%

Q: What about the EOSINOPHIL [3] of the same molecule?
A: 0.33%

Q: And the “ERYTHROCYTE COUNT” value [3]?
A: 7.19 x10E6/uL

Q: And the HEMATOCRIT [3]?
A: 45.6%

Q: And the HEMOGLOBIN [3]?
A: 14.37 G/DL

Q: And the “LEUKOCYTE COUNT” value [3]?
A: 11 x10E3/uL

Q: What about the LYMPHOCYTE [3] of the same molecule?
A: 73.1%

Q: What about the “MEAN CORPUSCULAR HEMOGLOBIN” value [3] of the same molecule?
A: 19.97 pg

Q: And the “MEAN CORPUSCULAR HEMOGLOBIN CONCENTRATION” value [3]?
A: 31.47 G/DL

Q: And the MONOCYTE [3]?
A: 2.23%

Q: What about the NEUTROPHIL [3] of the same molecule?
A: 22.3%

Q: What about the “PLATELET COUNT” value [3] of the same molecule?
A: 1212.33 x10E3/uL

Q: What about the “ALANINE AMINOTRANSFERASE” value [3] of the same molecule?
A: 40.33 u/L

Q: What about the ALBUMIN [3] of the same molecule?
A: 3.57 G/DL

Q: And the “ALKALINE PHOSPHATASE” value [3]?
A: 328 u/L

Q: And the “BLOOD UREA NITROGEN” value [3]?
A: 13.33 mg/dL

Q: What about the CHLORIDE [3] of the same molecule?
A: 104 MEQ/L

Q: And the CHOLESTEROL [3]?
A: 71 mg/dL

Q: And the “CREATINE PHOSPHOKINASE” value [3]?
A: 116 u/L

Q: And the CREATININE [3]?
A: 0.6 mg/dL

Q: And the GLUCOSE [3]?
A: 170.33 mg/dL

Q: What about the PHOSPHORUS [3] of the same molecule?
A: 11.63 mg/dL

Q: And the POTASSIUM [3]?
A: 6.3 MEQ/L

Q: And the SODIUM [3]?
A: 150 MEQ/L

Q: And the “TOTAL BILIRUBIN” value [3]?
A: 0.37 mg/dL

Q: And the BASOPHIL [4]?
A: 1.23%

Q: What about the EOSINOPHIL [4] of the same molecule?
A: 0.3%

Q: And the “ERYTHROCYTE COUNT” value [4]?
A: 6.82 x10E6/uL

Q: What about the HEMATOCRIT [4] of the same molecule?
A: 42.17%

Q: What about the HEMOGLOBIN [4] of the same molecule?
A: 13.37 G/DL

Q: And the “LEUKOCYTE COUNT” value [4]?
A: 13 x10E3/uL

Q: What about the LYMPHOCYTE [4] of the same molecule?
A: 76.73%

Q: What about the “MEAN CORPUSCULAR HEMOGLOBIN” value [4] of the same molecule?
A: 19.6 pg

Q: What about the “MEAN CORPUSCULAR HEMOGLOBIN CONCENTRATION” value [4] of the same molecule?
A: 31.67 G/DL

Q: What about the MONOCYTE [4] of the same molecule?
A: 2.2%

Q: And the NEUTROPHIL [4]?
A: 18.83%

Q: What about the “PLATELET COUNT” value [4] of the same molecule?
A: 1398.33 x10E3/uL

Q: And the “ALANINE AMINOTRANSFERASE” value [4]?
A: 34 u/L

Q: What about the ALBUMIN [4] of the same molecule?
A: 3.5 G/DL

Q: What about the “ALKALINE PHOSPHATASE” value [4] of the same molecule?
A: 320.33 u/L

Q: What about the “ASPARTATE AMINOTRANSFERASE” value [4] of the same molecule?
A: 59.67 u/L

Q: And the “BLOOD UREA NITROGEN” value [4]?
A: 15.67 mg/dL

Q: What about the CHLORIDE [4] of the same molecule?
A: 104.67 MEQ/L

Q: And the CHOLESTEROL [4]?
A: 70.33 mg/dL

Q: And the “CREATINE PHOSPHOKINASE” value [4]?
A: 96 u/L

Q: What about the CREATININE [4] of the same molecule?
A: 0.53 mg/dL

Q: What about the GLUCOSE [4] of the same molecule?
A: 186.33 mg/dL

Q: And the PHOSPHORUS [4]?
A: 12.03 mg/dL

Q: What about the POTASSIUM [4] of the same molecule?
A: 6.2 MEQ/L

Q: And the SODIUM [4]?
A: 149.33 MEQ/L

Q: And the “TOTAL BILIRUBIN” value [4]?
A: 0.3 mg/dL

Q: What about the “TOTAL PROTEIN” value [4] of the same molecule?
A: 6.27 G/DL
